For orientation: EC50 means the concentration giving half of the maximal effect. Lower therefore signals greater potency. As usually defined, the IC50 is the concentration that gives 50% inhibition. The low end stands for greater potency, the high end for weaker potency.

Positions of bridges follow the written chain, without caps; N, C: chain ends. Residues, ends and D or L forms follow the SMILES beside them.

These results are taken from article PMC9343605, “Structural insights into ligand recognition and selectivity of somatostatin receptors” (Cell Research, 2022).

Data set [1] deals with T1, SSTR4 (Homo sapiens, UniProt P31391, F275A). The experiment in a line: cAMP accumulation assay (agonist-induced inhibition of forskolin-stimulated cAMP), SSTR4, HEK293F.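 Note: transiently transfected cells incubated 40 min at room temperature with 4 µM forskolin and graded ligand, cAMP read by LANCE Ultra TR-FRET kit, values normalized to WT receptor per ligand.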 The conditions noted are these: SSTR4 mutant F275^6.51A, mean ± SEM. Details: expressed in transfected cells; host or cells: HEK293F. It is filed as cell-based. A general note: cAMP levels reflect the balance of adenylyl cyclase and phosphodiesterase activity.
T1 sequence (P31391 whole entry F275A): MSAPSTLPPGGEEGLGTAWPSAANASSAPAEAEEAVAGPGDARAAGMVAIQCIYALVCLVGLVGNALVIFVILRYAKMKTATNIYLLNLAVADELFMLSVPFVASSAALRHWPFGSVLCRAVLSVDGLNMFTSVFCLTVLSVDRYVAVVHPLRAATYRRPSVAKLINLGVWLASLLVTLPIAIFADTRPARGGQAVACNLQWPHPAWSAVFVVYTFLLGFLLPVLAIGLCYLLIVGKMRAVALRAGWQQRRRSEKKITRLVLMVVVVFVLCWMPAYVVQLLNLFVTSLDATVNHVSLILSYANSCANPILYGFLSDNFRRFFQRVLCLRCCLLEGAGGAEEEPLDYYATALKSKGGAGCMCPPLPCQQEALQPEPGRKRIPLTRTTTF
Protocol: (§1) HEK293F cells were transiently transfected with WT or mutant SSTR2/SSTR4 using transfection reagent (PEI MAX 2000, Polysciences) and incubated at 37 °C in 5% CO2. Forty-eight hours after transfection, cells were centrifuged and resuspended in stimulation buffer (Hanks’ balanced salt solution (HBSS) supplemented with 5 mM HEPES, 0.5 mM IBMX and 0.1% (w/v) bovine serum albumin (BSA), pH 7.4) to a density of 200,000 cells/mL and added to 384-well white plates (PerkinElmer, 1000 cells/well). cAMP accumulation was measured by a LANCE Ultra cAMP kit (PerkinElmer) according to the manufacturer’s instructions. In brief, transfected cells were incubated for 40 min in stimulation buffer with 2.5 μL forskolin (SSTR2: 2 μM; SSTR4: 4 μM) and gradient concentration of ligand at RT. The reactions were stopped by addition of lysis buffer containing 5 μL Eu-cAMP tracer and 5 μL ULight-anti-cAMP. Plates were then incubated for 60 min at RT and time-resolved FRET signals were measured at 620 nm and 665 nm by an EnVision multilabel plate reader (PerkinElmer). Data were analyzed in GraphPad PRISM 8 and all values were normalized to the WT for each ligand. All outcomes were repeated at least three times.
(§2) aMutants represent that mutations were introduced separately into the WT receptors and
(§3) transiently expressed in HEK 293F cells.
(§4) bThe EC50 ratio was shown as EC50(mutant)/EC50(WT), indicating the shift between the WT
(§5) and mutant curves, reflecting the effect of the mutations on receptor signaling.
(§6) cData are shown as mean ± S.E.M. from at least three independent experiments
(§7) performed in technical triplicate. One-way ANOVA was performed followed by
(§8) Dunnett’s post-test and compared with WT. The P value was defined as: *P<0.05;
(§9) d The span is defined as the window between the maximal agonists response (Emax) and
(§10) e Sample size; the number of independent experiments performed in technical triplicate.
(§11) f Receptor expression level of HEK 293F cells was determined independently by flow
(§12) cytometry with anti-FLAG antibody and shown as per cent compared to the WT.

The target in data set [2] is T2, SSTR4 (Homo sapiens, UniProt P31391). Described as above. The class given is cell-based. Details: expressed in transfected cells; host or cells: HEK293F. The following applies: HEK293F, WT SSTR4, mean ± SEM.
T2 sequence (P31391 whole entry): as the sequence (P31391 whole entry F275A) above, with A275F counted along it
Protocol: as §1, §2, §3, §4, §5, §6, §7, §8, §9, §10, §11, §12
In data set [3] the target is T3, SSTR4 (Homo sapiens, UniProt P31391, T215A). The data set is described as above. The class given is cell-based. Details: expressed in transfected cells; host or cells: HEK293F. The conditions noted are these: SSTR4 mutant T215^5.42A, mean ± SEM.
T3 sequence (P31391 whole entry T215A): as the sequence (P31391 whole entry F275A) above, with T215A, A275F counted along it
Protocol: as §1, §2, §3, §4, §5, §6, §7, §8, §9, §10, §11, §12
Data set [4] concerns the target T4, SSTR4 (Homo sapiens, UniProt P31391, M130A). The data set is described as above. The conditions noted are these: SSTR4 mutant M130^3.36A, mean ± SEM. Further details: expressed in transfected cells; host or cells: HEK293F. It is filed as cell-based.
Protocol: as §1, §2, §3, §4, §5, §6, §7, §8, §9, §10, §11, §12
Data set [5] concerns the target T5, SSTR4 (Homo sapiens, UniProt P31391, Q279A). The description is as above. The class given is cell-based. Details: expressed in transfected cells; host or cells: HEK293F. The following applies: SSTR4 mutant Q279^6.55A, mean ± SEM.
Protocol: as §1, §2, §3, §4, §5, §6, §7, §8, §9, §10, §11, §12
The target in data set [6] is T6, SSTR4 (Homo sapiens, UniProt P31391, N199A). The description is as above. The class given is cell-based. Details: expressed in transfected cells; host or cells: HEK293F. The following applies: SSTR4 mutant N199^ECL2A, mean ± SEM.
T6 sequence (P31391 whole entry N199A): as the sequence (P31391 whole entry F275A) above, with N199A, A275F counted along it
Protocol: as §1, §2, §3, §4, §5, §6, §7, §8, §9, §10, §11, §12
Data set [7] deals with SSTR4 (Homo sapiens, UniProt P31391, S208A). Put plainly: Whole cell binding assay, SSTR4, competition with 125I-Tyr11-SST14, CHO-K1. The following applies: SSTR4 mutant S208^5.35A, mean ± SEM.
Sequence of SSTR4 (Homo sapiens, UniProt P31391, S208A) (P31391 whole entry S208A): as the sequence (P31391 whole entry F275A) above, with S208A, A275F counted along it
Protocol: (§13) For SSTR2 and SSTR4, CHO-K1 cells were cultured in F12 medium with 10% FBS and seeded at a density of 30,000 cells/well in Isoplate-96 plates (PerkinElmer). Twenty-four hours after transfection with the WT or mutant SSTR2/SSTR4, CHO-K1 cells were washed twice and incubated with blocking buffer (F12 supplemented with 25 mM HEPES and 0.1% (w/v) BSA, pH 7.4) for 2 h at 37 °C. […] Following incubation, cells were washed three times with ice-cold PBS and lysed by 50 μL lysis buffer (PBS supplemented with 20 mM Tris-HCl, 1% Triton X-100, pH 7.4). The radioactivity was subsequently counted (counts/min, CPM) in a scintillation counter (MicroBeta[2] Plate Counter, PerkinElmer) using a scintillation cocktail (OptiPhaseSuperMix, PerkinElmer). Data were analyzed by nonlinear regression using GraphPad PRISM 8.
(§14) aMutants represent that all mutations were introduced separately into the WT receptors
and expressed in CHO K1 cells.
(§15) bThe IC50 ratio was shown as IC50(mutant)/IC50(WT), indicating the shift between the WT
(§16) and mutant curves, reflecting the effect of the mutations on ligand binding.
(§17) cData are shown as mean ± S.E.M. form at least three independent experiments
as §7
(§18) Dunnett’s post-test and compared with WT.
as §9, §10
Data set [8] has as its target T7, SSTR4 (Homo sapiens, UniProt P31391, N293A).
T7 construct: expressed in transfected cells; host or cells: HEK293F
The description is as above. The conditions noted are these: SSTR4 mutant N293^7.35A, mean ± SEM.
Protocol: as §13, §14
and expressed in CHO K1 cells.
as §15, §16, §17, §7, §18, §9, §10

Data set [9] has as its target SSTR4 (Homo sapiens, UniProt P31391, S208W). Put plainly: cAMP accumulation assay (agonist-induced inhibition of forskolin-stimulated cAMP), SSTR4, HEK293F.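 Note: transiently transfected cells incubated 40 min at room temperature with 4 µM forskolin and graded ligand, cAMP read by LANCE Ultra TR-FRET kit, values normalized to WT receptor per ligand.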 It is filed as cell-based. The following applies: SSTR4 mutant S208^5.35W, mean ± SEM.
Protocol: as §1, §2, §3, §4, §5, §6, §7, §8, §9, §10, §11, §12
Data set [10] has as its target T8, SSTR4 (Homo sapiens, UniProt P31391, N282A).
T8 construct: expressed in transfected cells; host or cells: HEK293F
The data set is described as above. The class given is cell-based. The following applies: SSTR4 mutant N282^6.58A, mean ± SEM.
Protocol: as §1, §2, §3, §4, §5, §6, §7, §8, §9, §10, §11, §12

In data set [11] the target is SSTR4 (Homo sapiens, UniProt P31391, N293F). Described as above. It is filed as cell-based. The conditions noted are these: HEK293F; SSTR4 mutant N293^7.35F; mean ± SEM; read-out: Span.
Sequence of SSTR4 (Homo sapiens, UniProt P31391, N293F) (P31391 whole entry N293F): as the sequence (P31391 whole entry F275A) above, with A275F, N293F counted along it
Protocol: as §1, §2, §3, §4, §5, §6, §7, §8, §9, §10, §11, §12
The target of data set [12] is T9, SSTR4 (Homo sapiens, UniProt P31391, F211A).
T9 construct: expressed in transfected cells; host or cells: HEK293F
T9 sequence (P31391 whole entry F211A): as the sequence (P31391 whole entry F275A) above, with F211A, A275F counted along it
The description is as above. The class given is cell-based. The conditions noted are these: SSTR4 mutant F211^5.38A, mean ± SEM.
Protocol: as §1, §2, §3, §4, §5, §6, §7, §8, §9, §10, §11, §12

In data set [13] the target is T10, SSTR4 (Homo sapiens, UniProt P31391, L297A).
T10 construct: expressed in transfected cells; host or cells: HEK293F
T10 sequence (P31391 whole entry L297A): as the sequence (P31391 whole entry F275A) above, with A275F, L297A counted along it
The description is as above. The class given is cell-based. The following applies: SSTR4 mutant L297^7.39A, mean ± SEM.
Protocol: as §1, §2, §3, §4, §5, §6, §7, §8, §9, §10, §11, §12

The target in data set [14] is SSTR4 (Homo sapiens, UniProt P31391, R110A). The data set is described as above. The following applies: SSTR4 mutant R110^ECL1A, mean ± SEM. It is filed as cell-based.
Sequence of SSTR4 (Homo sapiens, UniProt P31391, R110A) (P31391 whole entry R110A): as the sequence (P31391 whole entry F275A) above, with R110A, A275F counted along it
Protocol: as §1, §2, §3, §4, §5, §6, §7, §8, §9, §10, §11, §12
Data set [15] concerns the target T7, SSTR4. The description is as above. It is filed as cell-based. The following applies: SSTR4 mutant N293^7.35A, mean ± SEM.
Protocol: as §1, §2, §3, §4, §5, §6, §7, §8, §9, §10, §11, §12
Data set [16] has as its target T1, SSTR4. The experiment in a line: Whole cell binding assay, SSTR4, competition with 125I-Tyr11-SST14, CHO-K1. The conditions noted are these: CHO-K1; SSTR4 mutant F275^6.51A; mean ± SEM; read-out: Span. Further details: expressed in transfected cells.
Protocol: as §13, §14
and expressed in CHO K1 cells.
as §15, §16, §17, §7, §18, §9, §10
Data set [17] deals with SSTR4 (Homo sapiens, UniProt P31391, Y301A). The data set is described as above. Further details: expressed in transfected cells. The conditions noted are these: CHO-K1; SSTR4 mutant Y301^7.43A; mean ± SEM; read-out: Span.
Sequence of SSTR4 (Homo sapiens, UniProt P31391, Y301A) (P31391 whole entry Y301A): as the sequence (P31391 whole entry F275A) above, with A275F, Y301A counted along it
Protocol: as §13, §14
and expressed in CHO K1 cells.
as §15, §16, §17, §7, §18, §9, §10
For data set [18], the target named is SSTR4 (Homo sapiens, UniProt P31391, D126A). Described as above. The conditions noted are these: CHO-K1; SSTR4 mutant D126^3.32A; mean ± SEM; read-out: Span. Further details: expressed in transfected cells.
Sequence of SSTR4 (Homo sapiens, UniProt P31391, D126A) (P31391 whole entry D126A): as the sequence (P31391 whole entry F275A) above, with D126A, A275F counted along it
Protocol: as §13, §14
and expressed in CHO K1 cells.
as §15, §16, §17, §7, §18, §9, §10
The target in data set [19] is T2, SSTR4. Described as above. Further details: expressed in transfected cells. The following applies: WT SSTR4, mean ± SEM.
Protocol: as §13, §14
and expressed in CHO K1 cells.
as §15, §16, §17, §7, §18, §9, §10
The target of data set [20] is T3, SSTR4. Described as above. The following applies: SSTR4 mutant T215^5.42A, mean ± SEM. Further details: expressed in transfected cells.
Protocol: as §13, §14
and expressed in CHO K1 cells.
as §15, §16, §17, §7, §18, §9, §10
Data set [21] addresses T4, SSTR4. The description is as above. Details: expressed in transfected cells. The conditions noted are these: CHO-K1; SSTR4 mutant M130^3.36A; mean ± SEM; read-out: Span.
Protocol: as §13, §14
and expressed in CHO K1 cells.
as §15, §16, §17, §7, §18, §9, §10
Data set [22] concerns the target T5, SSTR4. The data set is described as above. Further details: expressed in transfected cells. The following applies: SSTR4 mutant Q279^6.55A, mean ± SEM.
Protocol: as §13, §14
and expressed in CHO K1 cells.
as §15, §16, §17, §7, §18, §9, §10
Data set [23] deals with T6, SSTR4. The data set is described as above. Further details: expressed in transfected cells. The following applies: CHO-K1; SSTR4 mutant N199^ECL2A; mean ± SEM; read-out: Span.
Protocol: as §13, §14
and expressed in CHO K1 cells.
as §15, §16, §17, §7, §18, §9, §10
A further data set has as its system SSTR1–5. The following applies: cited from earlier work. The text has this: Somatostatin (SST), an inhibitory hormone that distributes widely in both human central nervous system and periphery tissues negatively regulates multiple hormone releases (growth hormone, glucagon, insulin, gastrin and cholecystokinin) and cell proliferation through SST receptors (SSTRs).[1]–[4] There are five types of SSTRs, namely SSTR1–SSTR5, which are divided into two subfamilies: SRIF1 (SSTR2, SSTR3, SSTR5) and SRIF2 (SSTR1, SSTR4) based on phylogenetic, sequence homology and ligand binding profiles.[5] Two bioactive SST peptides, SST-14 and its N-terminally extended form SST-28, have be ...

The conditions of data set [24]: cited from earlier work. The text has this:
Along with increased knowledge of the pharmacological effects of these receptors, medical application of SST and its analogs has expanded. A considerable amount of effort has been made to develop new therapeutics for oncology of SSTRs. […] It was found recently that radiolabeled SSTR antagonists produced superi ...

Setting [25] is: at least three independent experiments.

T4 sequence (P31391 whole entry M130A): as the sequence (P31391 whole entry F275A) above, with M130A, A275F counted along it
T5 sequence (P31391 whole entry Q279A): as the sequence (P31391 whole entry F275A) above, with A275F, Q279A counted along it
T7 sequence (P31391 whole entry N293A): as the sequence (P31391 whole entry F275A) above, with A275F, N293A counted along it
T8 sequence (P31391 whole entry N282A): as the sequence (P31391 whole entry F275A) above, with A275F, N282A counted along it
Sequence of SSTR4 (Homo sapiens, UniProt P31391, S208W) (P31391 whole entry S208W): as the sequence (P31391 whole entry F275A) above, with S208W, A275F counted along it

As to `C[C@@H]1NC(=O)[C@H](Cc2ccccc2)NC(=O)[C@@H](N)CSSC[C@@H](C(=O)O)NC(=O)[C@H](Cc2ccccc2)NC(=O)[C@H]([C@@H](C)O)NC(=O)[C@H](CCCCN)NC(=O)[C@H](Cc2c[nH]c3ccccc23)NC1=O` [Peptide3] (H-CFAWKTFC-OH; disulfide 1-8), the Emax on SSTR4 [1] (HEK293F, read-out: Span) is 20 ± 5%; on SSTR4 [2] (window between Emax and vehicle, read-out: Span) it was 100 ± 3%; on SSTR4 [3] (HEK293F, read-out: Span), 79 ± 6%; on SSTR4 [4] (HEK293F, read-out: Span) it was 72 ± 4%; at SSTR4 [5] (HEK293F, read-out: Span), 77 ± 5%; at SSTR4 [6] (HEK293F, read-out: Span), 93 ± 6%. For the same compound, the Emax on SSTR4 [7] (CHO-K1, read-out: Span) is 152 ± 11%; on SSTR4 [8] (CHO-K1, read-out: Span), 132 ± 12%; on SSTR4 [9] (HEK293F, read-out: Span) it was 58 ± 6%; at SSTR4 [10] (HEK293F, read-out: Span), 48 ± 2%; at SSTR4 [11], 16 ± 7%; on SSTR4 [12] (HEK293F, read-out: Span) it was 65 ± 5%. In addition, the Emax at SSTR4 [13] (HEK293F, read-out: Span) came to 99 ± 8%; on SSTR4 [14] (HEK293F, read-out: Span) it was 100 ± 6%; on SSTR4 [15] (HEK293F, read-out: Span), 106 ± 7%; at SSTR4 [16], 23 ± 5%; on SSTR4 [17] it was 30 ± 16%; on SSTR4 [18], 23 ± 8%. The Emax at SSTR4 [19] (CHO-K1, read-out: Span) is 100 ± 7%; at SSTR4 [20] (CHO-K1, read-out: Span), 96 ± 15%; on SSTR4 [21], 26 ± 5%; on SSTR4 [22] (CHO-K1, read-out: Span) it was 45 ± 12%; on SSTR4 [23], 26 ± 7%. The EC50 is 676 nM at SSTR4 [1]; 1.26 nM on SSTR4 [2] (setting [25]); 0.479 nM on SSTR4 [3]; 97.7 nM at SSTR4 [4]; 5.01 nM on SSTR4 [5]; 15.1 nM on SSTR4 [6]. For the same compound, the 50% effective concentration (EC50) at SSTR4 [9] is 1.12 nM; on SSTR4 [10] it was 2.34 nM; at SSTR4 [12] it was 145 nM; on SSTR4 [13], 102 nM; on SSTR4 [14] it was 1.91 nM; at SSTR4 [15] it was 3.47 nM. Further, the IC50 was 0.0708 nM at SSTR4 [7]; 1.29 nM at SSTR4 [8]; 3.8 nM at SSTR4 [19] (setting [25]); 0.0676 nM on SSTR4 [20]; 1.35 nM at SSTR4 [22].

Regarding “SST-28: N-terminally extended form of bioactive SST peptide”, the “affinity for SSTR1–5” value in the data set on SSTR1–5 was “high and equal affinity for SSTR1–5”.

On to “SST: Somatostatin, an inhibitory hormone”, for which the half-life result in data set [24] is recorded as “less than 3 min”.
